# From PMC7175277, “Hydroxylamine Analogue of Agmatine: Magic Bullet for Arginine Decarboxylase” (Biomolecules, 2020)
# B1: E. coli ADC (Escherichia coli K-12) (protein)
# chain: MSDDMSMGLPSSAGEHGVLRSMQEVAMSSQEASKMLRTYNIAWWGNNYYDVNELGHISVCPDPDVPEARVDLAQLVKTREAQGQRLPALFCFPQILQHRLRSINAAFKRARESYGYNGDYFLVYPIKVNQHRRVIESLIHSGEPLGLEAGSKAELMAVLAHAGMTRSVIVCNGYKDREYIRLALIGEKMGHKVYLVIEKMSEIAIVLDEAERLNVVPRLGVRARLASQGSGKWQSSGGEKSKFGLAATQVLQLVETLREAGRLDSLQLLHFHLGSQMANIRDIATGVRESARFYVELHKLGVNIQCFDVGGGLGVDYEGTRSQSDCSVNYGLNEYANNIIWAIGDACEENGLPHPTVITESGRAVTAHHTVLVSNIIGVERNEYTVPTAPAEDAPRALQSMWETWQEMHEPGTRRSLREWLHDSQMDLHDIHIGYSSGIFSLQERAWAEQLYLSMCHEVQKQLDPQNRAHRPIIDELQERMADKMYVNFSLFQSMPDAWGIDQLFPVLPLEGLDQVPERRAVLLDITCDSDGAIDHYIDGDGIATTMPMPEYDPENPPMLGFFMVGAYQEILGNMHNLFGDTEAVDVFVFPDGSVEVELSDEGDTVADMLQYVQLDPKTLLTQFRDQVKKTDLDAELQQQFLEEFEAGLYGYTYLEDE
# notes: The kinetic parameters determined for the partially purified biosynthetic ADC from E. coli; endogenous in cells; host or cells: E. coli DH5α (39-53% ammonium sulphate fraction of the lysate, desalted)
# Tests used:
# [1] = tested on: Acremonium chrysogenum high-cephalosporin-yielding (HY) RNCM F-4081D; test: Fungal growth inhibition (drop-dilution, CD agar), HY strain; assay type: cell-based; conditions: for inhibition at 5000 µM: Hapsidospora chrysogena, 336 h, read-out: Growth inhibition
# Excerpt: (§1) Two strains of Acremonium chrysogenum were used in this study: the wild-type (Brotzu) isolate ATCC 11550 (WT) and high-cephalosporin-yielding RNCM F-4081D (HY), derived from the WT [37]. The cultivation conditions were the same as previously described. The filamentous fungi were cultivated on agarized Czapek-Dox (CD) medium (30 g/L sucrose, 2 g/L NaNO3, 1 g/L K2HPO4, 0.5 g/L MgSO4×7 H2O, 0.5 g/L KCl, 0.01 g/L FeSO4×7 H2O, 20 g/L agar, pH 7.0–7.4). To determine the toxic effect of AO-Agm, APA, DFMA and DFMO on the growth of fungal cells the drop-dilution method was used with some modifications as described earlier. Cells were collected from agar slants and diluted with 0.9% NaCl solution up to OD600 = 0.5 (basic concentration), followed by serial tenfold dilutions with the same solution. […] The inoculated Petri dishes were incubated for 21 days at 26 °C. The inhibitory effects of the compounds were measured every three days after inoculation and evaluated by measuring the ratio of colony growth on agarized CD medium supplemented with AO-Agm, APA, DFMA, or DFMO to the growth in the control (agarized CD medium without any additions). The formula: growth inhibition % = [(Dc − Dt)/Dc] × 100, where Dc indicates the colony diameter in control set, and Dt indicates the colony diameter in the treatment set that was used to determine the percent of fungal growth inhibition. The data recorded were measured in triplicate and repeated at least twice.
# [2] = tested on: Acremonium chrysogenum wild-type (WT) ATCC 11550; test: Fungal growth inhibition (drop-dilution, CD agar), WT strain; assay type: cell-based; conditions: for inhibition at 5000 µM: Hapsidospora chrysogena, ATCC11550, 336 h, 14 days after inoculation on CD medium
# Excerpt: as §1
# [3] = tested on: A. chrysogenum HY strain; test: Polyamine content in the fungi, HY strain; assay type: cell-based, Acremonium chrysogenum; conditions: 24 h
# Description: (§2) WT and HY A. chrysogenum strains were preliminarily grown in tubes on CD medium slants for 7 days at 25 °C and used for the inoculation of 30 mL of a liquid CD medium (seed medium). The strains were cultivated on CD medium for 48 h at 26 °C and inoculated into ten volumes of CD medium. The fermentation was carried out for 120 h at 26 °C in 250-mL Erlenmeyer flasks on a CERTOMAT BS-1 shaker (Sartorius, Germany) at 230 rpm, as described earlier. After 24 h of culture, 1 mL aliquots were removed, fungi were separated by centrifugation (15 min, 14,000 g) and washed with H2O (3 × 2 mL). The washed biomass was subjected to three cycles of freezing (−80 °C) and thawing at 20 °C in 5% perchloric acid. After the final thaw, samples were vortexed for 2 min and centrifuged for 10 min at 14,000 g. The supernatant was used for the determination of polyamine content.
# (§3) The dry biomass was prepared from 2 mL aliquots of fermentation media after 24 h. The biomass was separated by centrifugation (15 min, 14,000 g), the precipitated fungi cells were washed in triplicate with 10 volumes of H2O, dried at 80 °C for 96 h to a constant weight and used for normalization of polyamine content in the fungi.
# (§4) Polyamines were determined by HPLC from 50 µL of the 5% perchloric acid supernatant using a precolumn modification with Dans-Cl following mostly the published protocol. 1,7-Diaminoheptane was used as an internal standard and proline applied to quench the dansylation reaction. The solution of the dansylated polyamines in toluene (2 μL) was mixed with 50% aq. ethanol (13 µL) and applied on a reversed phase column (Cosmosil C18-MS-II, 250 × 4.6 mm, 5 µm). The column was eluted (1 mL/min) with the gradient: 0 min—0% B; 4 min—65% B; 17 min—65% B; 19 min—100% B, 23 min—100% B, 25 min—0% B; 30 min—0% B. System A—40% acetonitrile, 60% H2O. System B—80% acetonitrile, 20% tetrahydrofuran. Column temperature 40 °C, pressure 80–120 bar, fluorescent detection: λex 340 nm, λem 530 nm (detector RF-20A, Shimadzu Scientific Instrument, Columbia, MD, USA).
# [4] = biological target: E. coli ODC (Escherichia coli, UniProt P21169); test: E. coli ODC activity assay (HPLC of Put); assay type: biochemical
# Chain of E. coli ODC (P21169 whole entry): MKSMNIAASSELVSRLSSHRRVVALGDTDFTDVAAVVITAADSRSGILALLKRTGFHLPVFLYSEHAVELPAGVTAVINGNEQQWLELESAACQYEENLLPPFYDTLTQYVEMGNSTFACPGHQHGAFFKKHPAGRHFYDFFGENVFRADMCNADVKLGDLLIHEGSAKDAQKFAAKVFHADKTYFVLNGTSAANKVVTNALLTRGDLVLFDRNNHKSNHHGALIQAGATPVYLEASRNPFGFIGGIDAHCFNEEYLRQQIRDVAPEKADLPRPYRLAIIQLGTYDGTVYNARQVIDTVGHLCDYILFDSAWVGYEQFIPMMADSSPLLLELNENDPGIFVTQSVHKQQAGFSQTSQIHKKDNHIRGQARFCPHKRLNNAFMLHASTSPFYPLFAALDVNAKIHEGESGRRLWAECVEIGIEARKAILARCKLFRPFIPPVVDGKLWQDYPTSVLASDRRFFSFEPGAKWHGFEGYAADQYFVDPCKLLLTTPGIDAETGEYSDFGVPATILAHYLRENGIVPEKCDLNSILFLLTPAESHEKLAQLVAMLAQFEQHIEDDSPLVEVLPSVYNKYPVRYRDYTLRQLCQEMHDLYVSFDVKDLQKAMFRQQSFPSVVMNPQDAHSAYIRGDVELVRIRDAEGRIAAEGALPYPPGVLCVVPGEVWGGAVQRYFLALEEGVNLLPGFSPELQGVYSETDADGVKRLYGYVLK
# Description: (§5) The purification was performed using a modified procedure of earlier publication. E. coli strain DH5α was grown in Luria-Bertani broth at +37 °C with shaking (200 rpm) overnight. The cells were collected by centrifugation and the pellet was homogenized with Potter-Elvehjem in 10 volumes (w/v) of ice-cold 50 mM Tris-HCl pH 7.4, 1 mM DTT. The cell debris was removed by centrifugation at 12,000 g for 30 min at +4 °C. Solid (NH4)2SO4 was added to the supernatant, and the pellet precipitating between 39% and 53% saturation was separated. The precipitate was resuspended in ice-cold buffer containing 50 mM Tris-HCl pH 7.4 and 1 mM DTT and desalted by passage through Sephadex G-25 column (NAP-10 column, GE Healthcare). The protein concentration was measured with Bio-Rad protein reagent, and the partially purified enzyme preparation was mixed with 20% glycerol and aliquoted for storage at −80 °C.
# The ADC reaction mixture contained 50 mM Tris-HCl pH 7.8, 4 mM MgCl2, 1 mM DTT, 1.0 or 0.1 mM PLP and 20 μg of partially purified enzyme preparation in a total volume of 162 μL. The ODC reaction mixture contained 50 mM Tris-HCl pH 7.8, 1 mM EDTA, 2.4 mM DTT, 0.1 mM PLP and 20 μg of partially purified enzyme preparation. […] After incubation for 30 min (ADC) or 20 min (ODC) at +40 °C, 20 μL of 50% sulphosalicylic acid containing 50 μM diaminoheptane (internal standard) was added and the samples were analyzed for the content of agmatine (ADC) and Put (ODC) with HPLC as described previously. The kinetic parameters and IC50 values were determined with the aid of GraphPad Prism version 5.03 using nonlinear regression analysis.
# [5] = tested on: A. chrysogenum WT strain; test: Polyamine content in the fungi, WT strain; assay type: cell-based, Acremonium chrysogenum; conditions: 24 h
# Description: as §2, §3, §4
# [6] = biological target: T1, E. coli ADC (Escherichia coli, UniProt P21170); design: method as in PMID 4571773; conditions: pH 8.4; cited from earlier work
# T1 construct: The kinetic parameters determined for the partially purified biosynthetic ADC from E. coli; endogenous in cells; host or cells: E. coli DH5α (39-53% ammonium sulphate fraction of the lysate, desalted)
# T1 sequence (P21170 1-658): B1 chain
# [7] = tested on: DU145 prostate cancer cells; test: Growth of DU145 cells; assay type: cell-based; conditions: SC (1 mM) alone; 3 days
# Description: (§6) DU145 prostate cancer cells were cultured in high-glucose Dulbecco’s Modified Eagle’s Medium supplemented with 10% heat-inactivated fetal bovine serum, 2 mM L-glutamine and 50 μg/mL gentamycin (all from Sigma-Aldrich). The cells were plated on 6-well plates and allowed to attach overnight. […] The cells were harvested, and the pellet was mixed with 150 μL of 5% sulphosalicylic acid containing 5 μM diaminoheptane (internal standard). Polyamine analysis was carried out as described previously.
# [8] = tested on: DU145 prostate cancer cells; test: Intracellular polyamine pools of DU145 cells; assay type: cell-based; conditions: SC (1 mM) alone; 3 days
# Description: as §6
# [9] = biological target: T1, E. coli ADC; test: E. coli ADC activity assay (HPLC of agmatine); assay type: biochemical; conditions: 0.1 mM PLP; 15 min preincubation; 0.15 mM L-Arg
# Description: as §5
# […] The ODC reaction mixture contained 50 mM Tris-HCl pH 7.8, 1 mM EDTA, 2.4 mM DTT, 0.1 mM PLP and 20 μg of partially purified enzyme preparation. The mixtures were either preincubated or not preincubated for 15 min at +40 °C in the presence of the inhibitor, after which the reaction was started by the addition of 18 μL of 10× substrate (L-Arg for ADC and L-Orn for ODC). After incubation for 30 min (ADC) or 20 min (ODC) at +40 °C, 20 μL of 50% sulphosalicylic acid containing 50 μM diaminoheptane (internal standard) was added and the samples were analyzed for the content of agmatine (ADC) and Put (ODC) with HPLC as described previously. The kinetic parameters and IC50 values were determined with the aid of GraphPad Prism version 5.03 using nonlinear regression analysis.
# [10] = substrate: N=C(N)NCCC[C@H](N)C(=O)O; test: E. coli ADC activity assay (HPLC of agmatine); assay type: biochemical; conditions: other: partially purified ADC, pH 7.8
# Description: as §5
# […] After incubation for 30 min (ADC) or 20 min (ODC) at +40 °C, 20 μL of 50% sulphosalicylic acid containing 50 μM diaminoheptane (internal standard) was added and the samples were analyzed for the content of agmatine (ADC) and Put (ODC) with HPLC as described previously. The kinetic parameters and IC50 values were determined with the aid of GraphPad Prism version 5.03 using nonlinear regression analysis.
molecule,measurement,setting,value
"NCCC[C@](N)(C(=O)O)C(F)F [DFMO, α-(Difluoromethyl)ornithine]",Growth inhibition compared with 5 mM,"[1]; HY strain, 1 mM inhibitor",much less effective
same,inhibition at 5000 µM,[1],41%
same,Growth inhibition compared with 1 mM APA,[2]; 1 mM inhibitor,significantly less effective
same,Growth of WT strain,[2]; 5 mM inhibitor,completely inhibited
same,Effect of 0.5 mM Spd on the growth arrest caused by the inhibitor,[2]; 5 mM inhibitor + 0.5 mM Spd,reversed the growth arrest
same,inhibition at 5000 µM,[2]; 5 mM inhibitor,100%
same,Put,[3]; 5 mM DFMO + 0.5 mM Spd,<10 pmol/mg Dry Weight
same,Spd,[3]; 5 mM DFMO + 0.5 mM Spd,"46,630 ± 6700 pmol/mg Dry Weight"
same,Spm,[3]; 5 mM DFMO + 0.5 mM Spd,340 ± 56 pmol/mg Dry Weight
same,Put,[3]; 5 mM DFMO,<10 pmol/mg Dry Weight
same,Spd,[3]; 5 mM DFMO,410 ± 60 pmol/mg Dry Weight
same,Spm,[3]; 5 mM DFMO,424 ± 39 pmol/mg Dry Weight
same,Potency to inhibit E. coli ODC,"[4]; 0.1 mM PLP, 15 min preincubation, 7 mM L-Orn",very low potency
same,Put,[5]; 5 mM DFMO + 0.5 mM Spd,<10 pmol/mg Dry Weight
same,Spd,[5]; 5 mM DFMO + 0.5 mM Spd,"11,530 ± 3690 pmol/mg Dry Weight"
same,Spm,[5]; 5 mM DFMO + 0.5 mM Spd,90 ± 30 pmol/mg Dry Weight
same,Put,[5]; 5 mM DFMO,<10 pmol/mg Dry Weight
same,Spd,[5]; 5 mM DFMO,140 ± 10 pmol/mg Dry Weight
same,Spm,[5]; 5 mM DFMO,170 ± 20 pmol/mg Dry Weight
"NCCC[C@H](N)C(=O)O [L-Orn, L-ornithine]",Vmax,[4]; partially purified ODC,709 ± 7 nmol/h/mg protein
"N=C(N)NCCC[C@H](N)C(=O)O [L-Arg, L-arginine]",Km,[6],30 µM
"NNC(N)=O [SC, semicarbazide, reference compound]",Growth,[7],1.00 ± 0.04 Fold
same,Put,[8],1258 ± 157 pmol/mg Protein
same,Spd,[8],6483 ± 282 pmol/mg Protein
same,Spm,[8],3582 ± 146 pmol/mg Protein
"NCCCCNCCCN [Spd, spermidine]",Put,[3]; 0.5 mM Spd,<10 pmol/mg Dry Weight
same,Spd,[3]; 0.5 mM Spd,"39,180 ± 4840 pmol/mg Dry Weight"
same,Spm,[3]; 0.5 mM Spd,330 ± 10 pmol/mg Dry Weight
same,Put,[5]; 0.5 mM Spd,<10 pmol/mg Dry Weight
same,Spd,[5]; 0.5 mM Spd,"12,200 ± 2180 pmol/mg Dry Weight"
same,Spm,[5]; 0.5 mM Spd,70 ± 10 pmol/mg Dry Weight
"N=C(N)NCCCC(N)(C(=O)O)C(F)F (racemic) [DFMA, D,L-α-(difluoromethyl)arginine]",inhibition at 5000 µM,[1],13%
same,IC50,[9],10 ± 1 µM
same,inhibition at 5000 µM,[2]; 5 mM inhibitor,7%
B1,Km,[10],158 ± 5 µM
same,Vmax,[10],546 ± 5 nmol/h/mg protein
